Like-named read-outs stand apart in the source and are kept apart here.
Tested on: mice
Test: Acetic Acid Induced Mouse Writhing Test
Assay type: in vivo, mouse (male CD-1)
Conditions: for ED50: sc
Description: Analgesic effects of the test compounds were determined in mice by use of the acetic acid induced writhing test described by B. A. Whittle, Brit. J. Pharmacol., 22:246 (1964). In this test, at least 3 groups of 5 male CD-1 mice each were given subcutaneous doses of the test drug dissolved in distilled water. In all cases, 0.4 mL of a 0.5% v/v acetic acid in distilled water solution was administered intraperitoneally 15 min. post drug. The number of writhes in a 20 min. interval beginning 5 min. after the acetic acid injection were determined and compared with the number of writhes in a control group which had received only acetic acid.
Percent inhibition of writhing was calculated as: [formula]
The ED50 dose, i.e., the dose required to reduce the number of writhes by 50%, was determined graphically from a plot of % inhibition as a probit verus log dose. […] See Lichtfield, J. T. and Wilcoxon, F., J. Pharmacol. Exp. Ther., 96, 99-113 (1949).
The results of this testing, both in terms of μ mole/kg and mg/kg of the compound tested, are set out in table I.

[1] = 0.25 h, Analgesic Activity In Mouse Writhing Assay - Subcutaneous Inj., acetic acid i.p. 15 min post drug, * = d-tartrate salt, read-out: ED50 (mg/kg)
[2] = 0.25 h, Analgesic Activity In Mouse Writhing Assay - Subcutaneous Inj., acetic acid i.p. 15 min post drug, * = d-tartrate salt, read-out: ED50 (μmole/kg)

| SMILES | ED50 [1] [mg/kg] | ED50 [2] [µmol/kg] | ED50 (Mus musculus, acetic acid induced writhing assay, contrasted with compound 8, read-out: ED50 in the same assay) [mg/kg] | activity in the acetic acid induced writhing assay (at 10 mg/kg) |
| --- | --- | --- | --- | --- |
| CN1CC[C@]23c4c5ccc(O)c4O[C@H]2[C@H]2OC[C@@]2(CCCCCc2ccccc2)C[C@H]3[C@H]1C5 [Compound 20f] | 0.017 | 0.028 |  |  |
| COc1ccc2c3c1O[C@H]1[C@H]4OC[C@@]4(CCc4ccccc4)C[C@H]4[C@@H](C2)N(CC2CC2)CC[C@@]341 [Compound 23Pc] | 0.26 | 0.57 |  |  |
| COc1ccc2c3c1O[C@H]1[C@H]4OC[C@@]4(CCCc4ccccc4)C[C@H]4[C@@H](C2)N(CC2CCC2)CC[C@@]341 [Compound 23Bd] | 2.8 | 4.4 |  |  |
| Oc1ccc2c3c1O[C@H]1[C@H]4OC[C@@]4(CCCCc4ccccc4)C[C@H]4[C@@H](C2)N(CC2CCC2)CC[C@@]341 [Compound 24Be] | 0.22 | 0.05 |  |  |
| CN1CC[C@]23c4c5ccc(O)c4O[C@H]2[C@H]2OC[C@@]2(CCCc2ccccc2)C[C@H]3[C@H]1C5 [Compound 20d] | 0.011 | 0.019 |  |  |
| COc1ccc2c3c1O[C@H]1[C@H]4OC[C@@]4(CCCCc4ccccc4)C[C@H]4[C@@H](C2)N(CC2CCC2)CC[C@@]341 [Compound 23Be] | 1.8 | 2.8 |  |  |
| Oc1ccc2c3c1O[C@H]1[C@H]4OC[C@@]4(CCCc4ccccc4)C[C@H]4[C@@H](C2)N(CC2CCC2)CC[C@@]341 [Compound 24Bd] | 0.0375 | 0.06 |  |  |
| COc1ccc2c3c1O[C@H]1[C@H]4OC[C@@]4(CCCCc4ccccc4)C[C@H]4[C@@H](C2)N(C)CC[C@@]341 [Compound 17e] | 0.0028 | 0.005 | 0.003 |  |
| COc1ccc2c3c1O[C@H]1[C@H]4OC[C@@]4(CCCCCc4ccccc4)C[C@H]4[C@@H](C2)N(C)CC[C@@]341 [Compound 17f] | 0.82 | 1.3 |  |  |
| CN1CC[C@]23c4c5ccc(O)c4O[C@H]2[C@H]2OC[C@@]2(CCc2ccccc2)C[C@H]3[C@H]1C5 [Compound 20c] | 0.024 | 0.048 |  |  |
| COc1ccc2c3c1O[C@H]1[C@H]4OC[C@@]4(CCCCc4ccccc4)C[C@H]4[C@@H](C2)N(CC2CC2)CC[C@@]341 [Compound 23Pe] | 0.39 | 0.61 |  |  |
| Oc1ccc2c3c1O[C@H]1[C@H]4OC[C@@]4(CCc4ccccc4)C[C@H]4[C@@H](C2)N(CC2CC2)CC[C@@]341 [Compound 24Pc] | 0.018 | 0.04 |  |  |
| COc1ccc2c3c1O[C@H]1[C@H]4OC[C@@]4(CCCc4ccccc4)C[C@H]4[C@@H](C2)N(CC2CC2)CC[C@@]341 [Compound 23Pd] | 0.67 | 1.07 |  |  |
| COc1ccc2c3c1O[C@H]1[C@H]4OC[C@@]4(CCc4ccccc4)C[C@H]4[C@@H](C2)N(C)CC[C@@]341 [Compound 17c] | 0.5 | 0.9 |  |  |
| Oc1ccc2c3c1O[C@H]1[C@H]4OC[C@@]4(CCCc4ccccc4)C[C@H]4[C@@H](C2)N(CC2CC2)CC[C@@]341 [Compound 24Pd] | 0.0015 | 0.003 |  |  |
| Oc1ccc2c3c1O[C@H]1[C@H]4OC[C@@]4(CCCCc4ccccc4)C[C@H]4[C@@H](C2)N(CC2CC2)CC[C@@]341 [Compound 24Pe] | 0.01 | 0.015 |  |  |
| Oc1ccc2c3c1O[C@H]1[C@H]4OC[C@@]4(CCc4ccccc4)C[C@H]4[C@@H](C2)N(CC2CCC2)CC[C@@]341 [Compound 24Bc] | 0.177 | 0.39 |  |  |
| COc1ccc2c3c1O[C@H]1[C@@H]4OC[C@]4(CCCCc4ccccc4)C[C@H]4[C@@H](C2)N(C)CC[C@@]341 [Compound 8, 4,5α-Epoxy-3-methoxy-17-methyl-7α-(4-phenylbutyl)-6β,7β-(oxymethylene)-morphinan] |  |  |  | inactive |
| COc1ccc2c3c1O[C@H]1[C@H]4OC[C@@]4(CCc4ccccc4)C[C@H]4[C@@H](C2)N(CC2CCC2)CC[C@@]341 [Compound 23Bc] | > 10 | > 16 |  |  |
| COc1ccc2c3c1O[C@H]1[C@H]4OC[C@@]4(CCCc4ccccc4)C[C@H]4[C@@H](C2)N(C)CC[C@@]341 [Compound 17d] | 0.027 | 0.046 |  |  |
| CN1CC[C@]23c4c5ccc(O)c4O[C@H]2[C@H]2OC[C@@]2(CCCCc2ccccc2)C[C@H]3[C@H]1C5 [Compound 20e] | 0.014 | 0.024 |  |  |
